In data set [1] the test system is proteasome. The experiment in a line: Rescue of PDP 16 pirin depletion by proteasome inhibitor in SK-OV-3 cells. It counts as cell-based, human. The following applies: 500 nM, 4 h pretreatment, then PDP 16 24 h. The method, then:
(§1) in vivo in athymic mice to increase its tumorigenicity and reliability as a xenograft, and used within 10 passages of banked stocks.
(§2) Prior to use, the cells were analyzed by short tandem repeat (STR) profiling. Polymorphic STR loci were amplified using a polymerase chain reaction (PCR) primer set. The PCR product (each locus being labelled with a different fluorophore) was analyzed simultaneously with size standards using automated fluorescent detection. The number of repeats at 10 different loci (as recommended by the American Type Culture Collection, ATCC) was used to define the STR profile and this was cross-referenced with online databases to confirm authenticity. […]
(§3) the ATCC reference line (LGC Promochem, UK). […]
(§4) nested PCR protocol (Venor GeM kit, Minerva Biolabs, Germany). Cells were grown in DMEM/10 % FCS, 2 mM glutamine and nonessential amino acids in 5 % CO2.
(§5) SK-OV-3 cells were treated as for each experimental condition. Cells were harvested and lysed by scraping in urea lysis buffer (20 mM HEPES pH 8.0, 9 M urea, 1 mM sodium orthovanadate, 2.5 mM sodium pyrophosphate, 1 mM β-glycerophosphate). […]
of samples was determined using a bicinchoninic acid (BCA) protein assay kit (Thermo Fisher Scientific). […]
Samples were treated, harvested and lysed as described above. […] The data was analyzed with the Compass software (ProteinSimple). […]

The nature of data set [2]: PDP aqueous stability protocol. Particulars: for half-life at 100 µM: phosphate buffer (PBS).
Data set [3] can be described thus: LogD7.4 determination by RP-HPLC. The following applies: pH 7.4.
The target of data set [4] is T1, pirin (Homo sapiens, UniProt O00625).
T1 sequence (O00625 1-290): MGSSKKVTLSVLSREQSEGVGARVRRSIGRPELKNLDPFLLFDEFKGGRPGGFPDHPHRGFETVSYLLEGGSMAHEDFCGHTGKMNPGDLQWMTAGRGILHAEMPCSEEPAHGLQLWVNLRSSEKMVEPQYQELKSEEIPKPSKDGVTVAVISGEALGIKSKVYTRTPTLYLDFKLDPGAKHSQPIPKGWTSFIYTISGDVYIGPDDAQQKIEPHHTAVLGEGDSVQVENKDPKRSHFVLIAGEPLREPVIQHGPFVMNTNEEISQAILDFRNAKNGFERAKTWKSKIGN
The experiment in a line: Pirin SPR (surface plasmon resonance) binding. The following applies: for Measured Rmax/Theoretical Rmax: SPR. (SPR reads the build-up and loss of mass on a sensor chip optically.)

Data set [5] is described as follows: Kinetic solubility determination by RP-HPLC. The following applies: PBS, pH 7.4, aqueous buffer, kinetic from dmso stock.
Data set [6] deals with T2, CRBN-DDB1 complex (Homo sapiens, UniProt Q96SW2).
T2 construct: His6-ZZ-HRV3C (N); made in house; host or cells: Sf9 insect cells (baculovirus co-infection)
Briefly: CRBN/DDB1 fluorescence polarization competition assay. It is filed as binding. Particulars: for pKi: calculated from geometric mean CRBN-DDB1 IC50 and FP-probe KD. The method, then:
CRBN/DDB1 Fluorescence Polarization Assay […]
Unless otherwise stated, the aqueous assay buffer contained 0.02 M HEPES((4-(2-hydroxyethyl)-1-piperazineethanesulfonic acid)) pH 8.0, 0.15 M NaCl, 0.5 mM TCEP ((tris(2-carboxyethyl)phosphine)), 0.05% Tween 20. The assay was conducted using 384 well black plates (ProxiPlate F Plus, Perkin-Elmer, Massachusetts, USA).
Plate Reader. […] Fluorescence […]
polarization was measured in units of millipolarization (mP) and are background corrected. Data were plotted and analyzed using […]
All experiments were performed in triplicate unless otherwise stated. Values are quoted as the geometric […]
Each graph is a representative example of a single biological repeat unless otherwise stated.
CRBN/DDB1 Protein Expression & Purification
Protein expression and purification methods adapted from Lopez-Girona et al.5 Full length human CRBN (accession number NM016302) was amplified by PCR & inserted downstream of the polyhedrin promoter of a pFBDM expression vector which had been modified to introduce a N-terminal His6-ZZ-HRV3C tag. Full length human DDB1 (accession number NM001923) was amplified by PCR with primers which introduced a C-terminal StrepTag and inserted downstream of the p10 promoter of a separate pFBDM expression vector. Baculoviruses were generated according to Bac-to-Bac protocols (Invitrogen) and used to co-infect Sf9 cells grown @ 27 °C in shaker flasks using Insect-XPRESS media (Lonza). Cells were harvested 48 hours post infection and frozen. For purification, pellets were thawed & resuspended in 5 volumes of Histrap buffer A (see below) and lysed […]
Superdex 200 (HiLoad 26/600), ResourceQ (6 mL) and finally a second Superdex 200 (HiLoad 26/600) column. All columns were from GE Healthcare and all purification steps were performed @ 4 °C. HisTrap buffer A: 50mM Tris (2-Amino-2-(hydroxymethyl)propane-1,3-diol), 500mM NaCl, 0.5mM TCEP ((tris(2-carboxyethyl)phosphine), 5% glycerol, pH 8.0. HisTrap Buffer B: + 250 mM imidazole. Superdex 200 buffer: 50mM Tris, 200mM NaCl, 0.5mM TCEP, 5% glycerol, pH 8.0. Resource Q buffer A: 50mM Tris, 0.5mM TCEP, 5% Glycerol, pH8.0. Resource Q buffer B + 1M NaCl.
California, USA) to prepare CRBN/DDB1 concentrations from 0.1 to 500 nM in 10 µL final assay volume containing 5 nM FP- […]
point prior to analysis. The KD was calculated using non-linear regression and a one-site specific binding model.
Analysis of competition assay FP-probe bound fraction […]
fb=probe bound fraction, KD=probe dissociation constant, L0=probe concentration, R0=protein concentration, Ki=ligand […]
CRBN/DDB1 Competition Assay
Compounds as solutions in DMSO were dispensed using an ECHO 550 Liquid Handler (Labcyte Inc).
Tracer controls (5 nM FP-probe S18 assay buffer only) and bound tracer controls (5 nM and 80 nM CRBN/DDB1) were included on each assay plate . Plates were incubated overnight at 4 °C before warming to room temperature and fluorescence polarization measured using an EnVision plate reader (Perkin -Elmer, Massachusetts, USA). IC 50 values […]
Table S2. CRBN/DDB1 Control Compounds

The target in data set [7] is T3, pirin protein in SK-OV-3 human ovarian cancer cells (Homo sapiens, UniProt O00625).
T3 construct: endogenous in cells; host or cells: SK-OV-3
T3 sequence (O00625 1-290): T1 sequence (O00625 1-290)
The experiment in a line: Pirin depletion in SK-OV-3 cells (immunoblot / capillary electrophoresis immunoassay). It counts as cell-based. How it is done: as §1, §2, §3, §4, §5
(§6) of samples was determined using a bicinchoninic acid (BCA) protein assay kit (Thermo Fisher Scientific). Western blotting was carried out as previously described.10 Pirin and GAPDH antibodies were obtained from Abcam (ab157212) and Merck […]
(§7) Samples were treated, harvested and lysed as described above. A total of 5 μL of 0.2 mg/mL protein was loaded into plates and capillary western analysis was carried out according to the manufacturer’s instructions (ProteinSimple WES). The data was analyzed with the Compass software (ProteinSimple).
(§8) Sigma-Aldrich and Cell Signaling Technology, respectively.
(§9) 10 Sharp SY, Boxall K, Rowlands M, Prodromou C, Roe SM, Maloney A, Powers M, Clarke PA, Box G, Sanderson S, Patterson L, Matthews TP, Cheung KM, Ball K, Hayes A, Raynaud F, Marais R, Pearl L, Eccles S, Aherne W, McDonald E, Workman P. In vitro biological characterization of a novel, synthetic diaryl pyrazole resorcinol class of heat shock protein 90 inhibitors.
(In western blotting, separated proteins are transferred to a membrane and probed.)

For data set [8], the target named is T1, pirin. The experiment in a line: Intracellular competition: rescue of PDP 16 pirin depletion by pirin ligands in SK-OV-3 cells. It counts as cell-based. Further details: endogenous in cells; host or cells: SK-OV-3. How it is done:
as §1, §2, §3, §4, §5, §6, §7, §8, §9

Setting [9] is: Pirin SPR KD, equilibrium analysis, one site specific binding model, geometric mean n = 3.
Where [10] appears, read: Pirin SPR KD, representative single repeat, best-fit value, one site specific binding.
The mark [11] stands for this setting: Pirin SPR pKD, mean of 3 values (unrounded), column statistics.
Where [12] appears, read: Pirin SPR pKD±SEM, n = 3 independent biological repeats.
The mark [13] stands for this setting: CRBN/DDB1 FP IC50, single repeat N=2, best-fit value, variable slope four parameters.
Setting [14] is: best-fit value, variable slope four parameters, read-out: CRBN/DDB1 FP IC50, single repeat N=1.
The mark [15] stands for this setting: best-fit value, variable slope four parameters, read-out: CRBN/DDB1 FP IC50, single repeat N=3.
Where [16] appears, read: displacement of thalidomide derived fluorescent probe, geometric mean n = 3, read-out: CRBN/DDB1 FP IC50.
The mark [17] stands for this setting: 4 h pretreatment, then PDP 16 for 2 h, SK-OV-3, Figure 4.

pIC50, pKd, pKi: −log10 of the molar value. Converted amounts (≈) assume the structure as drawn. “Also recorded” adds a separate entry of the source. Like-named read-outs stand apart in the source and are kept apart here. Peptide text beside a SMILES is read from it. * marks the point of attachment. Cbz = O=C(OCc1ccccc1)* Where only a bound is given, the exact number is not on record here.

Turning to `CC(C)C[C@@H](C=O)NC(=O)[C@H](CC(C)C)NC(=O)[C@H](CC(C)C)NC(=O)OCc1ccccc1` [MG132] (Cbz-Leu-Leu-Leu-aldehyde), the “Rescue of pirin degradation by MG132 preincubation” value in data set [1] is given as “rescue”.
Take `Cc1ccc(NC(=O)c2ccc3c(c2)OCCO3)cc1NC(=O)c1ccc2nc(OCCCC(=O)NCCOCCNC(=O)COc3cccc4c3C(=O)N(C3CCC(=O)NC3=O)C4=O)ccc2c1` (centres unmarked) [PDP 3, N-(5-(2,3-Dihydrobenzo[b][1,4]dioxine-6-carboxamido)-2-methylphenyl)-2-(4-((2-(2-(2-((2-(2,6-dioxopiperidin-3-yl)-1,3-dioxoisoindolin-4-yl)oxy)acetamido)ethoxy)ethyl)amino)-4-oxobutoxy)quinoline-6-carboxamide]: in data set [2] (pH 7.4), the half-life (commonly the time in which the quantity being followed falls by half) at 100 µM was 7.2 h. Further, the chromatographic logD (as a rule, lipophilicity estimated from chromatographic retention) in data set [3] was determined as 2.2. Also, the pKd (usually the negative decadic logarithm of the Kd, by convention in mol/L) was 6.96 in data set [4] (setting [9]), 6.95 in data set [4] (setting [10]), 6.97 in data set [4] (setting [11]) and 6.97 in data set [4] (setting [12]). Further, the “Measured Rmax/Theoretical Rmax” value in data set [4] was 0.44. Also, in data set [5], the kinetic solubility (usually the concentration staying in solution when a stock, usually in DMSO, is diluted into the medium) at 120 min came to 1 µM (≈ 0.942 µg/mL). The pIC50 in data set [6] (setting [13]) was 6.30; in data set [6] (setting [14]), 5.82; in data set [6] (setting [15]), 6.09; in data set [6] (setting [16]), 6.07. The pKi (commonly the negative decadic logarithm of the Ki, by convention in mol/L) in data set [6] was 6.66. Also, the IC50 in data set [6] (column statistics, read-out: CRBN/DDB1 FP pIC50, mean of 3 values (unrounded) (converted)) was 847 nM. The “Effects on SK-OV-3 cells” value in data set [7] (>1 μM, >48 h, data not shown) was “no measurable effects on the cancer cells”.
With `O=C1CCC(N2C(=O)c3cccc(OCCOCCOCCN4CCN(Cc5ccc6cc(C(=O)Nc7cc(NC(=O)c8cccc9c8OCCO9)ccc7Cl)ccc6n5)CC4)c3C2=O)C(=O)N1` (centres unmarked) [PDP 21, N-(2-Chloro-5-(2,3-dihydrobenzo[b][1,4]dioxine-5-carboxamido)phenyl)-2-((4-(2-(2-(2-((2-(2,6-dioxopiperidin-3-yl)-1,3-dioxoisoindolin-4-yl)oxy)ethoxy)ethoxy)ethyl)piperazin-1-yl)methyl)quinoline-6-carboxamide], in data set [2] (pH 7.4, Half-life (aqueous stability), 37 °C, pH 7.4 phosphate buffer), the half-life at 100 µM was 2.8 h. The chromatographic logD in data set [3] was found to be 2.9. Further, the pKd was less than 5.89 in data set [4] (setting [9]) and less than 5.90 in data set [4] (setting [12]). In addition, the kinetic solubility at 120 min in data set [5] is 2 µM (≈ 1.89 µg/mL). Also, the pIC50 is 6.56 in data set [6] (setting [13]), 6.23 in data set [6] (setting [14]), 6.35 in data set [6] (setting [15]) and 6.38 in data set [6] (setting [16]). Further, in data set [6], the pKi was 7.01. In addition, in data set [7] (SK-OV-3 cells, 24 h treatment, Western blot, Figure S19), the “Pirin depletion by negative control” value is “does not deplete pirin protein; also recorded: no pirin depletion”.
Regarding `Cc1ccc(NC(=O)c2ccc3c(c2)OCCO3)cc1NC(=O)c1ccc2nc(OCCN3CCCC3)ccc2c1` [chemical probe 1], the “Stability in pH 7.4 phosphate buffer” value in data set [2] (37 °C, pH 7.4 phosphate buffer) was “no instability”.
`CCN1CCN(Cc2ccc3cc(C(=O)Nc4cc(NC(=O)c5ccc6c(c5)OCCO6)ccc4Cl)ccc3n2)CC1` [chlorobisamide 22, N-(2-Chloro-5-(2,3-dihydrobenzo[b][1,4]dioxine-6-carboxamido)phenyl)-2-((4-ethylpiperazin-1-yl)methyl)quinoline-6-carboxamide]: in data set [8] (setting [17]), the “Concentration giving complete rescue of pirin expression” value was found to be 1 µM. In data set [8] (setting [17]), the “Rescue of pirin expression following treatment with PDP 16” value was “concentration-dependent rescue of pirin expression”. In data set [8] (concentration > 1 μM, data not shown), the “Competition of PDP 16 at 6 h exposure” value was “unsuccessful”. Further, the values for the pKd in data set [4] (setting [10]), in data set [4] (setting [11]) and in data set [4] (setting [12]) were 7.70, 7.68 and 7.68, respectively. For the same compound, in data set [4], the “Measured Rmax/Theoretical Rmax” value is 0.29.

(Values after article PMC5815658 (Journal of Medicinal Chemistry, 2017).)
